Data: patent publication US12208160B2, “Pharmaceutical compositions comprising coated API” (Catalent U.K. Swindon Zydis Limited, priority 2020, dated 2025)

Columns and labels:
[1] = Mid Volume Dissolution (MVD) 60-Minute Profile of freeze-dried finished product; format: physicochemical; conditions: within ~5 mins; note to FIG. 26
Description: This analytical method is used to determine the mid-volume dissolution of freeze-dried finished products. The method employs a Distek small volume conversion kit. The method employs the Pion Rainbow Dynamic Dissolution Monitor (RDDM) at 75 rpm, with pH 7.2 phosphate buffer as a dissolution medium. Analysis is by fibre optic UV detection using the Pion μDISS Profiler with a UV detection under the 2nd derivative function using a 2 mm pathlength. Pathlength, dissolution media and wavelength range will vary depending on the API properties. […] A five-point calibration Curve is set up on the Pion software. The amount of API reference standard weighed will be dependent on the API. The following is an example for Ibuprofen:
As per USP <711>—A small, loose piece of non-reactive material, such as not more than a few turns on wire helix, may be attached to the freeze-dried tablets that would otherwise float. Add one freeze-dried tablet to each of the six dissolution vessels. The six probes will measure the absorbance of the API in the vessels and determine the % drug dissolved based on the calibration curve.
An additional methodology Mid Volume Dissolution (MVD) based on the 60-minute profile for the coated API has been developed to be able to directly compare dissolution profiles of the coated API with the resulting finished product units. […]

[2] = Low volume dissolution of Acetaminophen raw material and coated Acetaminophen material; format: physicochemical; conditions: APAP
Description: This analytical method is used to determine the low volume dissolution of Acetaminophen raw material and coated Acetaminophen material. […] The following is the working standard 5-point calibration curve preparation for this Example. Calibration Point 1: Weigh accurately 50.0 mg of Acetaminophen reference standard into a 100 mL volumetric flask. Dissolve in approximately 80 mL of dissolution media and sonicate until fully dissolved. Dilute to volume with dissolution media mixing thoroughly. This is the calibration point 1 working standard solution (concentration: approximately 0.5 mg/mL). Calibration Point 2: Weigh accurately 100.0 mg of Acetaminophen reference standard into a 100 mL volumetric flask. Dissolve in approximately 80 mL of dissolution media and sonicate until fully dissolved. Dilute to volume with dissolution media mixing thoroughly. This is the calibration point 2 working standard solution (concentration: approximately 1.0 mg/mL). Calibration Point 3: Weigh accurately 200.0 mg of Acetaminophen reference standard into a 100 mL volumetric flask. Dissolve in approximately 80 mL of dissolution media and sonicate until fully dissolved. Dilute to volume with dissolution media mixing thoroughly. This is the calibration point 3 working standard solution (concentration: approximately 2.0 mg/mL). Calibration Point 4: Weigh accurately 500.0 mg of Acetaminophen reference standard into a 100 mL volumetric flask. Dissolve in approximately 80 mL of dissolution media and sonicate until fully dissolved. Dilute to volume with dissolution media mixing thoroughly. This is the calibration point 4 working standard solution (concentration: approximately 5.0 mg/mL). Calibration Point 5: Weigh accurately 550.0 mg of Acetaminophen reference standard into a 100 mL volumetric flask. Dissolve in approximately 80 mL of dissolution media and sonicate until fully dissolved (this standard solution may require slight heating to dissolve all Acetaminophen). If required, allow the solution to equilibrate to room temperature, dilute to volume with dissolution media and mix thoroughly. This is the calibration point 5 working standard solution (concentration: approximately 5.5 mg/mL). Acetaminophen raw material: Six samples are analyzed. […] The individual software potencies for each vessel will be input into the DissoPRO software at the start of experiment. Six samples are analyzed. For each sample, weigh accurately 125 mg of coated Acetaminophen material into a Pion low volume dissolution vessel. The individual software potencies for each vessel will be input into the DissoPRO software at the start of experiment. […] The Coated APAP has undergone coating at bench scale operation using the Resonance Acoustic Mixing manufacturing process. […] The slow release profile is indicative of achieving a successful coating and preventing the API from readily dissolving and therefore a taste masked API.

Row | full release [1] [%] | % Acetaminophen dissolved ([2]; 0.0 minutes) [%] | % Acetaminophen dissolved ([2]; 5 minutes) [%] | % Acetaminophen dissolved ([2]; 10 minutes) [%] | % Acetaminophen dissolved ([2]; 15 minutes) [%] | % Acetaminophen dissolved ([2]; 20 minutes) [%] | % Acetaminophen dissolved ([2]; 25 minutes) [%] | % Acetaminophen dissolved ([2]; 30 minutes) [%] | equilibrium point (% dissolved) ([2]; within the first two minutes) | Compound
1 | ~80 | – | – | – | – | – | – | – | – | CC(C)Cc1ccc(C(C)C(=O)O)cc1 (stereo not drawn) [Raw Material, Ibuprofen]
2 | – | 0 | 127 | 128 | 128 | 128 | 128 | 128 | over 100% | CC(=O)Nc1ccc(O)cc1 [Raw Material - AN190319, Acetaminophen]
